What was measured:
[1] = system: iC9/CAR19/IL15+ NK cells; assay: Inducible caspase-9 suicide gene test, annexin-V-7AAD staining; format: cell-based, human; conditions: after 4 hours
Text: (C) CAR-NK cells home to sites of disease, such as the spleen, bone marrow, and liver, in a Raji engrafted mouse at Day 16 post-infusion. (D) CAR-NK cells persist in Raji engrafted mice at Day 70 post infusion. (E) CAR-transduced CB-NK cells show an anti-tumor effect in vivo in Raji-FFLuc mice from Day 0 to Day 14. (F) CAR-transduced CB-NK cells show an anti-tumor effect in vivo in Raji-FFLuc mice from Day 21 to Day 35. […] (H) Survival curve with different NK cell treatments. (I) CAR.19.IL15-iCasp9 transduced CB-NK cells are eliminated after activation of the suicide gene by exposure to the small molecule AP1903 after 4 hours.
Because of concerns over autonomous, uncontrolled NK-cell growth due to autocrine production of IL-15, a suicide gene based on the inducible caspase-9 (IC9) gene was incorporated into the construct. To test the inducible caspase-9 suicide gene that was incorporated into the retroviral vector, 10 nM of CID AP20187 was added to cultures of iC9/CAR19/IL15+ NK cells. The AP20187 induced apoptosis/necrosis of transgenic cells within 4 hours as assessed by annexin-V-7AAD staining (FIG. 2I).

[2] = system: primary CD19+ tumor cells; assay: Cytotoxicity (percent lysis) against tumor cells; format: cell-based, human; conditions: combination with CAR-transduced NK cells
Text: FIGS. 1A-1I: (A) CB NK cells were stably transduced with SFG.iCASP9.2A.CAR.CD19-28z.2A.[…]. Cell analysis for CD56 and CAR are shown from Day 10 to Day 44. (B) Histograms show NK receptor expression on ex vivo-expanded cord blood versus peripheral blood NK cells. NK receptors include KIR2DL2/DL3, KIR2DL1, NGK2A, NKP30, NKP44, and NKP46. (C) aAPC-expanded NK cells maintain an Eomes^hi and T-bet^hi phenotype. […] (G) NK cells co-expressing CAR.19-IL-15-iCasp9 form functional synapses with CD19^+ CLL cells. Cells are stained for Perforin, Phalloidin, and CAR and imaged by confocal microscopy. (H) CAR.19-IL-15-iCasp9 transduced CB-NK cells are more efficient at killing primary CD19^+ tumor cells. Percent lysis of tumor cells is shown at varying effector:target ratios of K562, Raji, and CLL cells. (I) The activity of cord blood-derived NK cells against primary CLL cells is enhanced with lenalidomide (Revlimid).
The immunological synapse in immune cells is a discrete structural entity that forms after the ligation of a specific activation receptor and enables the cell to progress through a series of biological steps that allow it to destroy cancer cells through the elaboration of the contents of NK cells lytic granules. To determine if the CAR-transduced NK cells formed immunological synapses with CD19^+ targets, the cells were stained with antiperforin, Phalloidin-F-actin and anti-CD19-CAR.

Structure (SMILES) | elimination of CAR.19.IL15-iCasp9 transduced CB-NK cells after activation of the suicide gene [1] | activity of CAR-transduced NK cells against patient-derived CLL cells on addition of lenalidomide [2]
CC[C@H](C(=O)N1CCCC[C@H]1C(=O)O[C@H](CCc1ccc(OC)c(OC)c1)c1cccc(OCC(=O)NCCNC(=O)COc2cccc([C@@H](CCc3ccc(OC)c(OC)c3)OC(=O)[C@@H]3CCCCN3C(=O)[C@@H](CC)c3cc(OC)c(OC)c(OC)c3)c2)c1)c1cc(OC)c(OC)c(OC)c1 [AP1903] | eliminated | 
Nc1cccc2c1CN(C1CCC(=O)NC1=O)C2=O (centres unmarked) [lenalidomide] |  | enhanced synergistically

Source: patent US11154572B2, “Methods of treatment with natural killer cells matched for killer immunoglobulin receptor type” (Board of Regents, The University of Texas System, priority 2015, dated 2021)
